In ChEMBL document CHEMBL1150401, “Genotoxicity of alpha-asarone analogues” (Bioorg Med Chem, 2008):

Columns and labels:
[1] = test system: Salmonella typhimurium; test: Cytotoxicity against Salmonella Typhimurium TA97 assessed as reduction in his+ revertants after 48 to 72 hrs in presence of S9 fraction; format: functional, Salmonella enterica subsp. enterica serovar Typhimurium; set-up: scale not given: the % may be the effect or the level left
[2] = test system: Salmonella typhimurium; test: Mutagenic activity in Salmonella Typhimurium TA97 assessed as number of his+ revertants at 500 ug/plate after 48 to 72 hrs by Ames test in absence of S9 fraction; format: toxicity, organism-based; conditions: salmonella enterica subsp. enterica serovar typhimurium
[3] = test system: Salmonella typhimurium; test: Mutagenic activity in Salmonella Typhimurium TA98 assessed as number of his+ revertants at 100 ug/plate after 48 to 72 hrs by Ames test in presence of S9 fraction; format: toxicity, organism-based; conditions: salmonella enterica subsp. enterica serovar typhimurium
[4] = test system: Salmonella typhimurium; test: Mutagenic activity in Salmonella Typhimurium TA102 assessed as number of his+ revertants at 100 ug/plate after 48 to 72 hrs by Ames test in presence of S9 fraction; format: toxicity, organism-based; conditions: salmonella enterica subsp. enterica serovar typhimurium
[5] = test system: Salmonella typhimurium; test: Cytotoxicity against Salmonella Typhimurium TA100 assessed as reduction in his+ revertants after 48 to 72 hrs in presence of S9 fraction; format: functional, Salmonella enterica subsp. enterica serovar Typhimurium; set-up: scale not given: the % may be the effect or the level left
[6] = test system: Salmonella typhimurium; test: Mutagenic activity in Salmonella Typhimurium TA98 assessed as number of his+ revertants at 1000 ug/plate after 48 to 72 hrs by Ames test in absence of S9 fraction; format: toxicity, organism-based; conditions: salmonella enterica subsp. enterica serovar typhimurium
[7] = test system: Salmonella typhimurium; test: Cytotoxicity against Salmonella Typhimurium TA97 assessed as growth inhibition after 48 to 72 hrs; format: functional, Salmonella enterica subsp. enterica serovar Typhimurium; set-up: scale not given: the % may be the effect or the level left
[8] = test system: Salmonella typhimurium; test: Cytotoxicity against Salmonella Typhimurium TA98 assessed as reduction in his+ revertants after 48 to 72 hrs in presence of S9 fraction; format: functional, Salmonella enterica subsp. enterica serovar Typhimurium; set-up: scale not given: the % may be the effect or the level left
[9] = test system: Salmonella typhimurium; test: Mutagenic activity in Salmonella Typhimurium TA100 assessed as number of his+ revertants at 100 ug/plate after 48 to 72 hrs by Ames test in presence of S9 fraction; format: toxicity, organism-based; conditions: salmonella enterica subsp. enterica serovar typhimurium
[10] = test system: Salmonella typhimurium; test: Mutagenic activity in Salmonella Typhimurium TA100 assessed as number of his+ revertants at 1000 ug/plate after 48 to 72 hrs by Ames test in absence of S9 fraction; format: toxicity, organism-based; conditions: salmonella enterica subsp. enterica serovar typhimurium
[11] = test system: Salmonella typhimurium; test: Mutagenic activity in Salmonella Typhimurium TA102 assessed as number of his+ revertants at 1000 ug/plate after 48 to 72 hrs by Ames test in presence of S9 fraction; format: toxicity, organism-based; conditions: salmonella enterica subsp. enterica serovar typhimurium
[12] = test system: Salmonella typhimurium; test: Mutagenic activity in Salmonella Typhimurium TA97 assessed as number of his+ revertants at 500 ug/plate after 48 to 72 hrs by Ames test in presence of S9 fraction; format: toxicity, organism-based; conditions: salmonella enterica subsp. enterica serovar typhimurium
[13] = test system: Salmonella typhimurium; test: Mutagenic activity in Salmonella Typhimurium TA97 assessed as number of his+ revertants at 100 ug/plate after 48 to 72 hrs by Ames test in presence of S9 fraction; format: toxicity, organism-based; conditions: salmonella enterica subsp. enterica serovar typhimurium
[14] = test system: Salmonella typhimurium; test: Mutagenic activity in Salmonella Typhimurium TA100 assessed as number of his+ revertants at 500 ug/plate after 48 to 72 hrs by Ames test in absence of S9 fraction; format: toxicity, organism-based; conditions: salmonella enterica subsp. enterica serovar typhimurium
[15] = test system: Salmonella typhimurium; test: Mutagenic activity in Salmonella Typhimurium TA98 assessed as number of his+ revertants at 500 ug/plate after 48 to 72 hrs by Ames test in presence of S9 fraction; format: toxicity, organism-based; conditions: salmonella enterica subsp. enterica serovar typhimurium
[16] = test system: Salmonella typhimurium; test: Mutagenic activity in Salmonella Typhimurium TA98 assessed as number of his+ revertants at 100 ug/plate after 48 to 72 hrs by Ames test in absence of S9 fraction; format: toxicity, organism-based; conditions: salmonella enterica subsp. enterica serovar typhimurium
[17] = test system: Salmonella typhimurium; test: Mutagenic activity in Salmonella Typhimurium TA98 assessed as number of his+ revertants at 1000 ug/plate after 48 to 72 hrs by Ames test in presence of S9 fraction; format: toxicity, organism-based; conditions: salmonella enterica subsp. enterica serovar typhimurium
[18] = test system: Salmonella typhimurium; test: Mutagenic activity in Salmonella Typhimurium TA100 assessed as number of his+ revertants at 100 ug/plate after 48 to 72 hrs by Ames test in absence of S9 fraction; format: toxicity, organism-based; conditions: salmonella enterica subsp. enterica serovar typhimurium
[19] = test system: Salmonella typhimurium; test: Mutagenic activity in Salmonella Typhimurium TA97 assessed as number of his+ revertants at 1000 ug/plate after 48 to 72 hrs by Ames test in presence of S9 fraction; format: toxicity, organism-based; conditions: salmonella enterica subsp. enterica serovar typhimurium
[20] = test system: Salmonella typhimurium; test: Mutagenic activity in Salmonella Typhimurium TA100 assessed as number of his+ revertants at 1000 ug/plate after 48 to 72 hrs by Ames test in presence of S9 fraction; format: toxicity, organism-based; conditions: salmonella enterica subsp. enterica serovar typhimurium
[21] = test system: Salmonella typhimurium; test: Cytotoxicity against Salmonella Typhimurium TA100 assessed as growth inhibition after 48 to 72 hrs; format: functional, Salmonella enterica subsp. enterica serovar Typhimurium; set-up: scale not given: the % may be the effect or the level left
[22] = test system: Salmonella typhimurium; test: Mutagenic activity in Salmonella Typhimurium TA102 assessed as number of his+ revertants at 100 ug/plate after 48 to 72 hrs by Ames test in absence of S9 fraction; format: toxicity, organism-based; conditions: salmonella enterica subsp. enterica serovar typhimurium
[23] = test system: Salmonella typhimurium; test: Mutagenic activity in Salmonella Typhimurium TA102 assessed as number of his+ revertants at 500 ug/plate after 48 to 72 hrs by Ames test in presence of S9 fraction; format: toxicity, organism-based; conditions: salmonella enterica subsp. enterica serovar typhimurium
[24] = test system: Salmonella typhimurium; test: Cytotoxicity against Salmonella Typhimurium TA102 assessed as reduction in his+ revertants after 48 to 72 hrs in presence of S9 fraction; format: functional, Salmonella enterica subsp. enterica serovar Typhimurium; set-up: scale not given: the % may be the effect or the level left
[25] = test system: Salmonella typhimurium; test: Mutagenic activity in Salmonella Typhimurium TA100 assessed as number of his+ revertants at 500 ug/plate after 48 to 72 hrs by Ames test in presence of S9 fraction; format: toxicity, organism-based; conditions: salmonella enterica subsp. enterica serovar typhimurium
[26] = test system: Salmonella typhimurium; test: Mutagenic activity in Salmonella Typhimurium TA97 assessed as number of his+ revertants at 1000 ug/plate after 48 to 72 hrs by Ames test in absence of S9 fraction; format: toxicity, organism-based; conditions: salmonella enterica subsp. enterica serovar typhimurium
[27] = test system: Salmonella typhimurium; test: Mutagenic activity in Salmonella Typhimurium TA102 assessed as number of his+ revertants at 500 ug/plate after 48 to 72 hrs by Ames test in absence of S9 fraction; format: toxicity, organism-based; conditions: salmonella enterica subsp. enterica serovar typhimurium
[28] = test system: L929; test: Genotoxicity against mouse L929 cells assessed as number of micronuclei at 100 ug/ml; format: toxicity, cell-based
[29] = test system: Salmonella typhimurium; test: Mutagenic activity in Salmonella Typhimurium TA97 assessed as number of his+ revertants at 100 ug/plate after 48 to 72 hrs by Ames test in absence of S9 fraction; format: toxicity, organism-based; conditions: salmonella enterica subsp. enterica serovar typhimurium
[30] = test system: Salmonella typhimurium; test: Mutagenic activity in Salmonella Typhimurium TA98 assessed as number of his+ revertants at 500 ug/plate after 48 to 72 hrs by Ames test in absence of S9 fraction; format: toxicity, organism-based; conditions: salmonella enterica subsp. enterica serovar typhimurium
[31] = test system: L929; test: Genotoxicity against mouse L929 cells assessed as number of micronuclei at 50 ug/ml; format: toxicity, cell-based
[32] = test system: Salmonella typhimurium; test: Cytotoxicity against Salmonella Typhimurium TA102 assessed as reduction in his+ revertants after 48 to 72 hrs in absence of S9 fraction; format: functional, Salmonella enterica subsp. enterica serovar Typhimurium; set-up: scale not given: the % may be the effect or the level left
[33] = test system: Salmonella typhimurium; test: Mutagenic activity in Salmonella Typhimurium TA102 assessed as number of his+ revertants at 1000 ug/plate after 48 to 72 hrs by Ames test in absence of S9 fraction; format: toxicity, organism-based; conditions: salmonella enterica subsp. enterica serovar typhimurium
[34] = test system: Salmonella typhimurium; test: Cytotoxicity against Salmonella Typhimurium TA102 assessed as growth inhibition oh his+ revertants after 48 to 72 hrs; format: functional, Salmonella enterica subsp. enterica serovar Typhimurium; set-up: scale not given: the % may be the effect or the level left
[35] = test system: Salmonella typhimurium; test: Cytotoxicity against Salmonella Typhimurium TA102 assessed as reduction in his+ revertants number at 500 ug/plate after 48 to 72 hrs in absence of S9 fraction; format: functional, Salmonella enterica subsp. enterica serovar Typhimurium; set-up: scale not given: the % may be the effect or the level left
[36] = test system: Salmonella typhimurium; test: Cytotoxicity against Salmonella Typhimurium TA102 assessed as reduction in his+ revertants number at 500 ug/plate after 48 to 72 hrs in presence of S9 fraction; format: functional, Salmonella enterica subsp. enterica serovar Typhimurium; set-up: scale not given: the % may be the effect or the level left
[37] = test system: Salmonella typhimurium; test: Cytotoxicity against Salmonella Typhimurium TA100 assessed as reduction in his+ revertants number at 500 ug/plate after 48 to 72 hrs in presence of S9 fraction; format: functional, Salmonella enterica subsp. enterica serovar Typhimurium; set-up: scale not given: the % may be the effect or the level left
[38] = test system: Salmonella typhimurium; test: Cytotoxicity against Salmonella Typhimurium TA98 assessed as reduction in his+ revertants number at 500 ug/plate after 48 to 72 hrs in presence of S9 fraction; format: functional, Salmonella enterica subsp. enterica serovar Typhimurium; set-up: scale not given: the % may be the effect or the level left
[39] = test system: Salmonella typhimurium; test: Cytotoxicity against Salmonella Typhimurium TA97 assessed as reduction in his+ revertants number at 500 ug/plate after 48 to 72 hrs in absence of S9 fraction; format: functional, Salmonella enterica subsp. enterica serovar Typhimurium; set-up: scale not given: the % may be the effect or the level left
[40] = test system: Salmonella typhimurium; test: Cytotoxicity against Salmonella Typhimurium TA100 assessed as reduction in his+ revertants number at 500 ug/plate after 48 to 72 hrs in absence of S9 fraction; format: functional, Salmonella enterica subsp. enterica serovar Typhimurium; set-up: scale not given: the % may be the effect or the level left
[41] = test system: Salmonella typhimurium; test: Cytotoxicity against Salmonella Typhimurium TA98 assessed as reduction in his+ revertants number at 500 ug/plate after 48 to 72 hrs in absence of S9 fraction; format: functional, Salmonella enterica subsp. enterica serovar Typhimurium; set-up: scale not given: the % may be the effect or the level left
[42] = test system: Salmonella typhimurium; test: Cytotoxicity against Salmonella Typhimurium TA97 assessed as reduction in his+ revertants number at 500 ug/plate after 48 to 72 hrs in presence of S9 fraction; format: functional, Salmonella enterica subsp. enterica serovar Typhimurium; set-up: scale not given: the % may be the effect or the level left

Structure (SMILES)	Activity [2]	Activity [3]	Activity [4]	Activity [6]	Activity [9]	Activity [10]	Activity [11]	Activity [12]	Activity [13]	Activity [14]	Activity [15]	Activity [16]	Activity [17]	Activity [18]	Activity [19]	Activity [20]	Activity [22]	Activity [23]	Activity [25]	Activity [26]	further results
C/C=C/c1cc(OC)c(OC)c(OC)c1	88	30	281	32	119	73	165	164	194	88	18	30	15	109	155	87	241	236	108	73	Activity [1]: 22%; Activity [5]: 22%; Activity [7]: 59%; Activity [8]: 22%; Activity [21]: 44%; Activity [24]: 22%; Activity [27]: 155; Activity [28]: 1.74%; Activity [29]: 109; Activity [30]: 24
C/C=C/c1c(OC)cc(OC)cc1OC	190	24	333	26	153	148	218	200	175	134	18	32	22	138	187	126	275	328	156	223	Activity [31]: 3.44%; Activity [32]: 28%; Activity [33]: 195; Activity [34]: 28%; Activity [24]: 27%; Activity [27]: 298; Activity [29]: 163; Activity [30]: 32
C/C=C/c1ccc(OC)c(OC)c1OC	151	44	343	20	167	100	233	200	212	116	43	27	26	108	172	132	236	335	160	131	Activity [35]: 23%; Activity [36]: 9%; Activity [37]: 9%; Activity [38]: 9%; Activity [39]: 23%; Activity [40]: 23%; Activity [33]: 160; Activity [41]: 23%; Activity [42]: 9%; Activity [27]: 203; Activity [28]: 3.79%; Activity [29]: 151; Activity [30]: 22
C/C=C/c1c(OC)ccc(OC)c1OC.CC(C)CCC[C@@H](C)[C@H]1CC[C@H]2[C@@H]3CC=C4C[C@@H](O)CC[C@]4(C)[C@H]3CC[C@]12C	137	35	270	23	188	96	49	126	191	104	27	26	42	112	171	162	270	162	186	141	Activity [32]: 43%; Activity [33]: 90; Activity [34]: 28%; Activity [24]: 46%; Activity [27]: 159; Activity [28]: 1.61%; Activity [29]: 153; Activity [30]: 26
